Test results as given in BindingDB's records for doi:10.7270/Q2NC5ZS3 (Burnham Center For Chemical Genomics, 2012).

target: T1, Corticotropin-releasing factor-binding protein (Homo sapiens, UniProt P24387)
T1 sequence (P24387 whole entry): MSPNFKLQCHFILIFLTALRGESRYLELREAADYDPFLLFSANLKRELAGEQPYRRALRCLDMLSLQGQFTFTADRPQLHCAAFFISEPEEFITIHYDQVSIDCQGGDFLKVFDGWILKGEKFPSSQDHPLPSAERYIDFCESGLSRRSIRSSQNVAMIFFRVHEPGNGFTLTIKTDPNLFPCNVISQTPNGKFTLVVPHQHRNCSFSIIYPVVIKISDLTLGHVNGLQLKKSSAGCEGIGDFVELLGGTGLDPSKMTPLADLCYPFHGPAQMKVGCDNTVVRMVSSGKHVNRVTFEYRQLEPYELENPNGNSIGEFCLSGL

Compound	IC50 [µM]
N#CC(C(=O)COc1ccc(Cl)cc1)c1nc2ccccc2s1 (centres undefined)	> 20
O=C(O)c1ccc(CN=Nc2cccc(C(F)(F)F)c2)cc1	> 20
Cc1ccc2nc(N3C(=O)C(=O)C(C(=O)c4ccco4)C3c3cccc(O)c3)sc2c1 (centres undefined)	> 20
Cc1cc(=O)oc2c1ccc1oc(C(N=O)c3ccccc3)c(C)c12 (centres undefined) [4,9-dimethyl-8-(N-oxidanyl-C-phenyl-carbonimidoyl)furo[2,3-h]chromen-2-one]	> 20
COC(=O)c1ccc(C(=O)C(C#N)c2nc3ccccc3s2)cc1 (centres undefined) [4-[(2Z)-2-(3H-1,3-benzothiazol-2-ylidene)-2-cyano-1-oxoethyl]benzoic acid methyl ester]	> 20
Cc1ccc2nc(N3C(=O)C(=O)C(C(=O)c4ccc(C)o4)C3c3cccc(O)c3)sc2c1 (centres undefined) [4-hydroxy-2-(3-hydroxyphenyl)-1-(6-methyl-1,3-benzothiazol-2-yl)-3-(5-methylfuran-2-carbonyl)-2H-pyrrol-5-one]	10.4
N#CC(C(=O)Cc1cccc2ccccc12)c1nc2ccccc2s1 (centres undefined) [(2Z)-2-(3H-1,3-benzothiazol-2-ylidene)-4-naphthalen-1-yl-3-oxobutanenitrile]	11.3
CN1c2ccccc2C(=O)C(C(=S)Nc2ccc(Cl)cc2)S1(=O)=O (centres undefined) [N-(4-chlorophenyl)-4-hydroxy-1-methyl-2,2-dioxo-1,2-dihydro-2lambda~6~,1-benzothiazine-3-carbothioamide]	> 20
O=NCc1ccc(Oc2ccc(F)cc2)c([N+](=O)[O-])c1 [N-[[4-(4-fluorophenoxy)-3-nitrophenyl]methylidene]hydroxylamine]	17.5

Further lines, results first:

IC50 [µM]	Compound
> 20	COc1ccc(/C=N/OCC(=O)NNC2=c3cc(Br)ccc3=NC2=O)cc1 [MLS000587830]
9.4	COc1ccc(C(C)N=Nc2ccc([N+](=O)[O-])cc2S(=O)(=O)Nc2ccccc2C(=O)O)c(OC)c1 (centres undefined) [MLS002249507]
1	Cn1c(O)c(N=Nc2ccc([N+](=O)[O-])cc2)sc1=S [MLS002608645]
15.5	Cc1ccc(-n2[nH]c(C)c(CN=Nc3ccc([N+](=O)[O-])cc3[N+](=O)[O-])c2=O)cc1 [SMR000171521]
> 20	Cc1ccc(S(=O)(=O)N(CC(=O)NNC2=c3ccccc3=NC2=O)c2ccc(C)c(C)c2)cc1 [SMR000207608]
